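Cultured in 96-well plates, cells were exposed to test compound for 48 hours across five concentrations. Here, GI50 denotes the concentration required for 50% inhibition of growth.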 Calls of active or inactive are those of the source. No stated cut-off is given here; in the data, active = GI50 up to about 1.1 µM and inactive = higher.

Test systems include 786-0; CCRF-CEM; COLO 205; HCT-15; HOP-62; HT-29; Hs-578T; IGROV-1; K562; KM12; LOX IMVI; Malme-3M; NCI-H226; NCI/ADR-RES; PC-3; SK-OV-3; A549; NCI-H522; OVCAR-4; SK-MEL-5.
What all share (assay): NCI anticancer screen, dose series, 48 h

Turning to `O=C(O)c1ccc2[nH]c(=O)oc2c1`, the GI50 was > 100 µM (inactive) with 786-0; > 100 µM (inactive) in the test on CCRF-CEM; > 100 µM (inactive) with COLO 205; more than 100 µM in the test on HCT-15; > 100 µM (inactive) in the test with HOP-62; > 100 µM (inactive) in the test on HT-29. In addition, the GI50 with Hs-578T, in the test on IGROV-1, in the test with K562, in the test with KM12, with LOX IMVI and with Malme-3M was > 100 µM (inactive) in each case. Besides, the GI50 in the test on NCI-H226, with NCI/ADR-RES, in the test on PC-3 and with SK-OV-3 was > 100 µM (inactive) each time.

Take `COc1ccc(C2SCC(=O)N2NC(=O)C(C)Oc2ccccc2Cl)cc1` (stereo not drawn): the GI50 was 98.6 µM (inactive) in the test with 786-0; 35.5 µM (inactive) in the test with A549; 31.8 µM (inactive) in the test on CCRF-CEM; 26.5 µM (inactive) in the test with COLO 205; 49.8 µM in the test with HCT-15; 65.8 µM (inactive) in the test on HT-29. In addition, the GI50 in the test with Hs-578T is > 100 µM (inactive); in the test on IGROV-1, 56.2 µM (inactive); in the test with K562, 47.4 µM (inactive); in the test with KM12, 35.9 µM (inactive); with LOX IMVI, 24.5 µM (inactive); with NCI-H226, 51.6 µM (inactive). Also, the GI50 is 51.9 µM (inactive) in the test on NCI-H522; 63.2 µM (inactive) with NCI/ADR-RES; 60.7 µM (inactive) in the test on OVCAR-4; 33.7 µM (inactive) with PC-3; 24.5 µM (inactive) with SK-MEL-5.

As to `Cc1cccc(C)c1NC(=O)C(=O)CC(=O)c1sc(Nc2c(C)cccc2C)nc1C`, the GI50 is > 100 µM (inactive) in the test on 786-0; > 100 µM (inactive) in the test on A549; > 100 µM (inactive) in the test on CCRF-CEM; > 100 µM (inactive) in the test on COLO 205; more than 100 µM in the test on HCT-15; > 100 µM (inactive) in the test on HOP-62. Moreover, the GI50 with HT-29, in the test with Hs-578T, in the test on IGROV-1, with K562, with KM12 and with LOX IMVI was > 100 µM (inactive) in each case. In addition, the GI50 in the test with NCI-H226, in the test on NCI-H522, with NCI/ADR-RES, in the test on OVCAR-4, with PC-3 and in the test with SK-OV-3 was > 100 µM (inactive) each time.

For the compound `N#CS/C(Cl)=C(/C(Cl)=C(Cl)Cl)[N+](=O)[O-]`, the GI50 with 786-0 is 28.2 µM (inactive); with A549, > 100 µM (inactive); with CCRF-CEM, 33 µM (inactive); with COLO 205, 30.5 µM (inactive); in the test with HCT-15 it was 20.9 µM; in the test on HOP-62, > 100 µM (inactive). The GI50 in the test on HT-29 was 34.5 µM (inactive); in the test with Hs-578T, 16.6 µM (inactive); in the test on IGROV-1, 37.5 µM (inactive); with K562, 40.7 µM (inactive); in the test on KM12, 47.6 µM (inactive); with LOX IMVI it was 19.6 µM (inactive). Besides, the GI50 is 20.7 µM (inactive) in the test with Malme-3M; > 100 µM (inactive) in the test with NCI-H226; 28.4 µM (inactive) in the test on NCI/ADR-RES; 48.3 µM (inactive) in the test on OVCAR-4; 35.2 µM (inactive) in the test on PC-3; 49.7 µM (inactive) in the test with SK-MEL-5. Besides, the GI50 in the test on SK-OV-3 was > 100 µM (inactive).

Turning to `O=C1C=C2CCC[C@H]3OC(=O)C[C@@]23CC1`, the GI50 with 786-0 is > 100 µM (inactive); with A549, > 100 µM (inactive); in the test on COLO 205, > 100 µM (inactive); in the test on HCT-15, more than 100 µM; in the test with HOP-62, > 100 µM (inactive); in the test on HT-29, > 100 µM (inactive). The GI50 in the test on Hs-578T, in the test with IGROV-1, in the test on K562, with KM12, in the test on LOX IMVI and in the test on Malme-3M was > 100 µM (inactive) each time. Besides, the GI50 in the test on NCI-H226, in the test with NCI-H522, with NCI/ADR-RES, with OVCAR-4, in the test with PC-3 and in the test on SK-MEL-5 was > 100 µM (inactive) throughout. The GI50 in the test on SK-OV-3 is > 100 µM (inactive).

With `CCC(=O)Nc1ncnc2ncn(C(=O)CC)c12`, the GI50 in the test with 786-0 is > 100 µM (inactive); with A549, > 100 µM (inactive); in the test with HCT-15 it was more than 100 µM; in the test on HOP-62 it was > 100 µM (inactive); in the test with HT-29 it was > 100 µM (inactive); in the test with Hs-578T it was > 100 µM (inactive). Moreover, the GI50 in the test with IGROV-1, with K562, in the test on KM12, in the test with LOX IMVI, in the test on Malme-3M and in the test with NCI-H522 was > 100 µM (inactive) throughout. Besides, the GI50 with NCI/ADR-RES, with OVCAR-4, with PC-3 and in the test on SK-OV-3 was > 100 µM (inactive) throughout.

Regarding `C=C1C(=O)O[C@@H]2C=C(C)C3=CC(=O)[C@](C)(C[C@H](OC(=O)/C(C)=C\C)[C@@H]12)O3`, the GI50 is 0.374 µM (active) with 786-0; 1.73 µM (inactive) in the test on A549; 0.209 µM (active) in the test with CCRF-CEM; 0.51 µM (active) in the test with COLO 205; 0.328 µM in the test on HCT-15; 3.14 µM (inactive) with HOP-62. The GI50 is 0.647 µM (active) in the test on HT-29; 2.85 µM (inactive) with Hs-578T; 1.03 µM (active) with IGROV-1; 0.282 µM (active) with K562; 1.3 µM (inactive) in the test with KM12; 0.299 µM (active) in the test on LOX IMVI. Also, the GI50 was 2.28 µM (inactive) in the test with NCI-H226; 0.144 µM (active) with NCI-H522; 0.67 µM (active) with NCI/ADR-RES; 4.88 µM (inactive) with OVCAR-4; 1.51 µM (inactive) with PC-3; 0.542 µM (active) in the test with SK-MEL-5. The GI50 in the test with SK-OV-3 is 4.05 µM (inactive).

Consider `O=C(/C=C/c1ccc(Cl)cc1)c1ccc(Cl)s1`, for which the GI50 in the test with 786-0 was 32.9 µM (inactive); in the test with A549, 62.2 µM (inactive); in the test on CCRF-CEM, 27 µM (inactive); in the test with COLO 205, 70.8 µM (inactive); in the test on HCT-15, 60.3 µM; in the test with HOP-62, > 100 µM (inactive). The GI50 in the test on HT-29 is 42.3 µM (inactive); in the test with Hs-578T, 40.5 µM (inactive); with IGROV-1, 49.2 µM (inactive); with K562 it was 30.3 µM (inactive); with KM12 it was 29.1 µM (inactive); in the test on LOX IMVI, 12.2 µM (inactive). The GI50 in the test on Malme-3M is > 100 µM (inactive); with NCI-H522, 64.1 µM (inactive); in the test with NCI/ADR-RES it was 72.1 µM (inactive); in the test with OVCAR-4, 69 µM (inactive); in the test with PC-3 it was 63 µM (inactive); in the test on SK-MEL-5 it was > 10 µM (inactive). Moreover, the GI50 in the test on SK-OV-3 is 98.6 µM (inactive).

Values taken from ChEMBL document CHEMBL1201862, “PubChem BioAssay data set” (2004).
